US20080009418A1, “Selective Inhibitors” (Alchemia LTD., priority 2004, published 2008)

Key:
Details in all cases: compound at 10 μM
[1] = target: T1, Human Melanocortin (MC4) (Homo sapiens, UniProt P32245); experiment: Radioligand binding, human melanocortin MC4 membranes, FlashPlate, [125I]-NDP-αMSH
T1 construct: purchased Perkin Elmer Biosignal
Outline: (§1)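 Cloned human receptor membranes were coated onto FlashPlate wells and incubated with radioligand and compound (added from a 0.5 mM DMSO daughter plate) for 1 hour at room temperature in the dark. Scintillation counting gave percent inhibition, with DMSO defining total and reference ligand defining non-specific binding.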

[2] = target: T2, Human κ-Opioid (KOP) (Homo sapiens, UniProt P41145); experiment: Radioligand binding, human κ-opioid (KOP) membranes, filtration, [3H]-Diprenorphine
T2 construct: purchased Perkin Elmer Biosignal
T2 sequence (P41145 whole entry): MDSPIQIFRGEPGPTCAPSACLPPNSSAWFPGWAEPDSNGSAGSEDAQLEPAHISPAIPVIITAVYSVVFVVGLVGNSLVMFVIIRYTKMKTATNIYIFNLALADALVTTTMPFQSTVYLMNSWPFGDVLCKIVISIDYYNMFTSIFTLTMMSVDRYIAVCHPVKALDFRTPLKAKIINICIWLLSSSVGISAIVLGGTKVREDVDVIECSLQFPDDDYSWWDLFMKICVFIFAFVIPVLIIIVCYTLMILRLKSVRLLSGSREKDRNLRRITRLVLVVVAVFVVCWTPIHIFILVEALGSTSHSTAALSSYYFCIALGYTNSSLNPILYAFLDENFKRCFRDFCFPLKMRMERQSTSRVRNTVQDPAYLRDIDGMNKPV
Outline: (§2)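 Membranes from cloned human receptors were incubated with compound and radioligand for 1 hour at room temperature. Bound ligand was collected on 0.3% PEI-soaked filters, washed with cold 50 mM Tris-HCl pH 7.4, and counted by scintillation. Percent inhibition was computed against DMSO totals and reference-ligand nonspecific wells.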

[3] = target: T3, Mouse urotensin (mUR2) (Mus musculus, UniProt Q8VIH9); experiment: Radioligand binding, mouse urotensin mUR2 membranes, FlashPlate, [125I]-Urotensin II
T3 construct: purchased Perkin Elmer Biosignal
T3 sequence (Q8VIH9 1-385): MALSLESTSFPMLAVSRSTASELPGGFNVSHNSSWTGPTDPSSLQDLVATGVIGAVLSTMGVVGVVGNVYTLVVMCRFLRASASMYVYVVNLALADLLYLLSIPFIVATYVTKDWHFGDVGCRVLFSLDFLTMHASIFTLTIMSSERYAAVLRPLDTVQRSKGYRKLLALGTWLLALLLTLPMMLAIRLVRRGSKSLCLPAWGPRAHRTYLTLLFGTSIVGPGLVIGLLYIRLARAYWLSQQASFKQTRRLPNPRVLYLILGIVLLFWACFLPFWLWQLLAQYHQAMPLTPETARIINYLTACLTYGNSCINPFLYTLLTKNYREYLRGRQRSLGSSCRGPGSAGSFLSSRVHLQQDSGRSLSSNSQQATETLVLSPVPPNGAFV
Outline: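 Cloned mouse urotensin (mUR2) receptor membranes from Perkin Elmer Biosignal were immobilized in FlashPlate microplates using a proprietary coating. Each well got 19.5 μl buffer, then 0.5 μl of DMSO, reference ligand, or compound. Adding 5 μl of [125I]-Urotensin II, diluted to 5× final concentration in binding buffer, started binding. Plates were sealed with TopSeal-A and incubated 1 hour at room temperature in the dark. Wells were counted for 30 seconds each on a TopCount after a 60-second delay, and percentage inhibition was calculated.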

[4] = target: T4, Human δ-opioid (DOP) (Homo sapiens, UniProt P41143); experiment: Radioligand binding, human δ-opioid (DOP) membranes, FlashPlate, [3H]-Bremazocine
T4 construct: purchased Perkin Elmer Biosignal
T4 sequence (P41143 whole entry): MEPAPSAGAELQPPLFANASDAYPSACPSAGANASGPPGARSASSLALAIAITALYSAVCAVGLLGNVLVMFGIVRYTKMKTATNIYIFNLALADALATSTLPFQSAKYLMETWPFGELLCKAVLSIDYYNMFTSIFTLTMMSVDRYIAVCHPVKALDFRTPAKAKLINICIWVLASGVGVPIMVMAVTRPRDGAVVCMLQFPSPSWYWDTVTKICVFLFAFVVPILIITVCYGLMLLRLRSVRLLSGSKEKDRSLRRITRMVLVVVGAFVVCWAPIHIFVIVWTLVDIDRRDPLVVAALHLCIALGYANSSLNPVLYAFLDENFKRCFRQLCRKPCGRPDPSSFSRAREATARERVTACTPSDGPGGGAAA
Outline: as §1

[5] = target: T5, Human opioid (ORL1) (Homo sapiens, UniProt P41146); experiment: Radioligand binding, human opioid ORL1 membranes, FlashPlate, [125I]-Nociceptin
T5 construct: purchased Perkin Elmer Biosignal
T5 sequence (P41146 whole entry): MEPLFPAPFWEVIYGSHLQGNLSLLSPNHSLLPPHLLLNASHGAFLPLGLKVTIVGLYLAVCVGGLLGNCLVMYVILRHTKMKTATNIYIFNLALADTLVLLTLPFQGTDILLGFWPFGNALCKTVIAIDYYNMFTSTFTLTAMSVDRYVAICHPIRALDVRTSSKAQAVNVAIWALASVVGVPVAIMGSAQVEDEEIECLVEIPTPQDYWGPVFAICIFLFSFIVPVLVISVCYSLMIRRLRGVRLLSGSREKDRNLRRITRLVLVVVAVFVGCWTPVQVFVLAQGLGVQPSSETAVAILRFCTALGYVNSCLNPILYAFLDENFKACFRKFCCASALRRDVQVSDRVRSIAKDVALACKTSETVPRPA
Outline: as §1

[6] = target: T6, Human μ-opioid (MOP) (Homo sapiens, UniProt P35372); experiment: Radioligand binding, human μ-opioid (MOP) membranes, FlashPlate, [3H]-Naloxone
T6 construct: purchased Perkin Elmer Biosignal
T6 sequence (P35372 whole entry): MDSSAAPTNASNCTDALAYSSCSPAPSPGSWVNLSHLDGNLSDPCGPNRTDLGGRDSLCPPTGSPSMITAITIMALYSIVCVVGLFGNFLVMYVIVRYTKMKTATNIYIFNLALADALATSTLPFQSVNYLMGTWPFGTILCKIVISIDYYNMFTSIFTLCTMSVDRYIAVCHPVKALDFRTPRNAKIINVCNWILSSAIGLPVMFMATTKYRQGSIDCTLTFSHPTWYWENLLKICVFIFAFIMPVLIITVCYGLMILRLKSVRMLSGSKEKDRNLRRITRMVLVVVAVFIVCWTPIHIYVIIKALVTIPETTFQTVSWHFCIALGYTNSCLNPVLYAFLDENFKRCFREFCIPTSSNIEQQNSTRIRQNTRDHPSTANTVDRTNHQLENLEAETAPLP
Outline: as §1

[7] = target: T7, Human Melanocortin (MC3) (Homo sapiens, UniProt P41968); experiment: Radioligand binding, human melanocortin MC3 membranes, FlashPlate, [125I]-NDP-αMSH
T7 construct: purchased Perkin Elmer Biosignal
T7 sequence (P41968 whole entry): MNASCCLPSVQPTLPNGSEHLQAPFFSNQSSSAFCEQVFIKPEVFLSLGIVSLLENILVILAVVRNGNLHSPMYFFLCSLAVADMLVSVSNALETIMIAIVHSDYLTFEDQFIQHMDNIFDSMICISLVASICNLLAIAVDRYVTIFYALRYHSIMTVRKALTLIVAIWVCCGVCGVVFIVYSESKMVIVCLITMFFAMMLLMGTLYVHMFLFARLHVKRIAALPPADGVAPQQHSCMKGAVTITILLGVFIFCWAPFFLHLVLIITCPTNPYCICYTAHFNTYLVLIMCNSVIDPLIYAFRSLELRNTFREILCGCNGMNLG
Outline: as §1

[8] = target: T8, Human neurokinin (NK1) (Homo sapiens, UniProt P25103); experiment: Radioligand binding, human neurokinin NK1 membranes, filtration, [125I]-Substance P
T8 construct: purchased Perkin Elmer Biosignal
T8 sequence (P25103 whole entry): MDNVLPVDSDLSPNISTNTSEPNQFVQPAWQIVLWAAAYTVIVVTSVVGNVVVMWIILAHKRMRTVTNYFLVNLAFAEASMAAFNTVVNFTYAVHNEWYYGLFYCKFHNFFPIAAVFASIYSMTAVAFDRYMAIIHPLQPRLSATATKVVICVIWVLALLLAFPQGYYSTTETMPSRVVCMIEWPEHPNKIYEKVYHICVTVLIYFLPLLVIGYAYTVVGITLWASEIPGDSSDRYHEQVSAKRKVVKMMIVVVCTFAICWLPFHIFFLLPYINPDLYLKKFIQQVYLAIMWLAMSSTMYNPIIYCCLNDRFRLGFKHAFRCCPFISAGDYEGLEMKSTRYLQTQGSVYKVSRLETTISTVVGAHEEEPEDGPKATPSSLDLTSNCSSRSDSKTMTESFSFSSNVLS
Outline: as §2

[9] = target: T9, Human melanocortin (MC5) (Homo sapiens, UniProt P33032); experiment: Radioligand binding, human melanocortin MC5 membranes, FlashPlate, [125I]-NDP-αMSH
T9 construct: purchased Perkin Elmer Biosignal
T9 sequence (P33032 whole entry): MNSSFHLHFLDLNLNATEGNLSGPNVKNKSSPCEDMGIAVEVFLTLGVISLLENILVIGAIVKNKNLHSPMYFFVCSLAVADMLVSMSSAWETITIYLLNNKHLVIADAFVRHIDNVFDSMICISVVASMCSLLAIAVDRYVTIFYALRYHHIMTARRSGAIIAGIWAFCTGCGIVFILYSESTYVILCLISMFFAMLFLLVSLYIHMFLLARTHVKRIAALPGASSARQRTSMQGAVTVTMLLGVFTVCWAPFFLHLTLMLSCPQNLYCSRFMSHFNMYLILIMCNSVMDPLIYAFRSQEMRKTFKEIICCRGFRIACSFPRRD
Outline: as §1

[10] = target: T10, Human neuropeptide Y (NPY-Y1) (Homo sapiens, UniProt P25929); experiment: Radioligand binding, human neuropeptide Y NPY-Y1 membranes, FlashPlate, [125I]-PYY
T10 construct: purchased Perkin Elmer Biosignal
T10 sequence (P25929 1-384): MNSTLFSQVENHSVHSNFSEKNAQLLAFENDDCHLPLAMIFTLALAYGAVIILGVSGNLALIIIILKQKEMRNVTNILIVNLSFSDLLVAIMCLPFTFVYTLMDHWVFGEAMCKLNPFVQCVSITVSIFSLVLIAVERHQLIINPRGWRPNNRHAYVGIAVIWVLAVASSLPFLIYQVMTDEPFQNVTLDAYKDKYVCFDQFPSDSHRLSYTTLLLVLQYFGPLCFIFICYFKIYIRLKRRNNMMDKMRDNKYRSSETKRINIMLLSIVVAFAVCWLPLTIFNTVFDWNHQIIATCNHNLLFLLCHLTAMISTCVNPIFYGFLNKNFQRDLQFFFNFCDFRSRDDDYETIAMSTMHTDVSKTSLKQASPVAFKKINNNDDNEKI
Outline: as §1

[11] = target: T11, Human melanin-concentrating hormone (MCH1) (Homo sapiens, UniProt Q99705); experiment: Radioligand binding, human melanin-concentrating hormone MCH1 membranes, FlashPlate, [125I]-S36057
T11 construct: purchased Perkin Elmer Biosignal
T11 sequence (Q99705 whole entry): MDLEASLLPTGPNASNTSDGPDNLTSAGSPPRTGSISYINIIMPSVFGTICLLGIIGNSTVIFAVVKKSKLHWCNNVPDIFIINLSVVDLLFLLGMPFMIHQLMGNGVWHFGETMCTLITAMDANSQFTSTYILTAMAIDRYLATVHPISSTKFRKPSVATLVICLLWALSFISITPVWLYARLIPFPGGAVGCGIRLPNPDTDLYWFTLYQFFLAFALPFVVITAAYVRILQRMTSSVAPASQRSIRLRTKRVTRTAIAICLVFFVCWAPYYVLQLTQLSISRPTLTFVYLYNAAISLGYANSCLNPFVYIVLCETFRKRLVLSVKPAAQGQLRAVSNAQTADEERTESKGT
Outline: as §1

T1 sequence (P32245 whole entry): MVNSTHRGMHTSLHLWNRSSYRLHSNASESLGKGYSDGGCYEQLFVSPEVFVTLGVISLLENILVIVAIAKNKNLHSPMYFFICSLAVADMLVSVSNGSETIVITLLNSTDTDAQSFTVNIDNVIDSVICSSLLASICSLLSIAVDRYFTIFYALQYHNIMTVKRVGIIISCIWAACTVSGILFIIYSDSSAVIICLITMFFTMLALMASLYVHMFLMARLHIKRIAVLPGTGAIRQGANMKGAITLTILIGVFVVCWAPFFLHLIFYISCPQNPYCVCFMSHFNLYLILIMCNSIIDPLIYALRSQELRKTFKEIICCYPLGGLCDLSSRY

NCCCC(=O)NC1C(OCc2ccccc2)OC(COCc2ccc3ccccc3c2)C(O)C1OCc1ccc2ccccc2c1 (stereo not shown) [compound 375]
A4: inhibition of radioligand binding, human melanocortin (MC4) ([1]; [125I]-NDP-αMSH): + (“+” indicates greater than 50% inhibition at 10 μM)
A2: inhibition of radioligand binding, human κ-opioid (KOP) ([2]; [3H]-Diprenorphine): − (“−” indicates less than 50% inhibition at 10 μM)
A11: inhibition of radioligand binding, mouse urotensin (mUR2) ([3]; [125I]-Urotensin II): − (“−” indicates less than 50% inhibition at 10 μM)
A1: inhibition of radioligand binding, human δ-opioid (DOP) ([4]; [3H]-Bremazocine): − (“−” indicates less than 50% inhibition at 10 μM)
A10: inhibition of radioligand binding, human opioid (ORL1) ([5]; [125I]-Nociceptin): − (“−” indicates less than 50% inhibition at 10 μM)
A7: inhibition of radioligand binding, human μ-opioid (MOP) ([6]; [3H]-Naloxone): − (“−” indicates less than 50% inhibition at 10 μM)
A3: inhibition of radioligand binding, human melanocortin (MC3) ([7]; [125I]-NDP-αMSH): − (“−” indicates less than 50% inhibition at 10 μM)
A8: inhibition of radioligand binding, human neurokinin (NK1) ([8]; [125I]-Substance P): + (“+” indicates greater than 50% inhibition at 10 μM)
A5: inhibition of radioligand binding, human melanocortin (MC5) ([9]; [125I]-NDP-αMSH): + (“+” indicates greater than 50% inhibition at 10 μM)
A9: inhibition of radioligand binding, human neuropeptide Y (NPY-Y1) ([10]; [125I]-PYY): − (“−” indicates less than 50% inhibition at 10 μM)
A6: inhibition of radioligand binding, human melanin-concentrating hormone (MCH1) ([11]; [125I]-S36057): − (“−” indicates less than 50% inhibition at 10 μM)

COC[C@H]1OC(OCc2ccc3ccccc3c2)[C@H](NC(=O)CNC(=N)N)[C@@H](OCc2ccc3ccccc3c2)[C@@H]1O (stereo partly shown) [compound 17]
A4 radioligand binding inhibition ([1]; human melanocortin MC4 membranes): + (“+” indicates greater than 50% inhibition at 10 μM)
A2 radioligand binding inhibition ([2]; human κ-opioid (KOP) membranes): − (“−” indicates less than 50% inhibition at 10 μM)
A11 radioligand binding inhibition ([3]; mouse urotensin mUR2 membranes): − (“−” indicates less than 50% inhibition at 10 μM)
A1 radioligand binding inhibition ([4]; human δ-opioid (DOP) membranes): − (“−” indicates less than 50% inhibition at 10 μM)
A10 radioligand binding inhibition ([5]; human ORL1 membranes): − (“−” indicates less than 50% inhibition at 10 μM)
A7 radioligand binding inhibition ([6]; human μ-opioid (MOP) membranes): + (“+” indicates greater than 50% inhibition at 10 μM)
A3 radioligand binding inhibition ([7]; human melanocortin MC3 membranes): − (“−” indicates less than 50% inhibition at 10 μM)
A8 radioligand binding inhibition ([8]; human neurokinin NK1 membranes): + (“+” indicates greater than 50% inhibition at 10 μM)
A5 radioligand binding inhibition ([9]; human melanocortin MC5 membranes): + (“+” indicates greater than 50% inhibition at 10 μM)
A9 radioligand binding inhibition ([10]; human NPY-Y1 membranes): − (“−” indicates less than 50% inhibition at 10 μM)
A6 radioligand binding inhibition ([11]; human MCH1 membranes): + (“+” indicates greater than 50% inhibition at 10 μM)

N=C(N)NCCC(=O)N[C@H]1C(OCc2ccc(Cl)cc2)O[C@H](COCc2ccccc2)[C@@H](O)[C@@H]1OCc1ccc(-c2ccccc2)cc1 (stereo partly shown) [compound 535]
A4: inhibition of radioligand binding, human melanocortin (MC4) ([1]; [125I]-NDP-αMSH): + (“+” indicates greater than 50% inhibition at 10 μM)
A2: inhibition of radioligand binding, human κ-opioid (KOP) ([2]; [3H]-Diprenorphine): + (“+” indicates greater than 50% inhibition at 10 μM)
A11: inhibition of radioligand binding, mouse urotensin (mUR2) ([3]; [125I]-Urotensin II): − (“−” indicates less than 50% inhibition at 10 μM)
A1: inhibition of radioligand binding, human δ-opioid (DOP) ([4]; [3H]-Bremazocine, 10 µM): + (“+” indicates greater than 50% inhibition at 10 μM)
A10: inhibition of radioligand binding, human opioid (ORL1) ([5]; [125I]-Nociceptin): − (“−” indicates less than 50% inhibition at 10 μM)
A7: inhibition of radioligand binding, human μ-opioid (MOP) ([6]; [3H]-Naloxone, 10 µM): + (“+” indicates greater than 50% inhibition at 10 μM)
A3: inhibition of radioligand binding, human melanocortin (MC3) ([7]; [125I]-NDP-αMSH): + (“+” indicates greater than 50% inhibition at 10 μM)
A8: inhibition of radioligand binding, human neurokinin (NK1) ([8]; [125I]-Substance P): + (“+” indicates greater than 50% inhibition at 10 μM)
A5: inhibition of radioligand binding, human melanocortin (MC5) ([9]; [125I]-NDP-αMSH): + (“+” indicates greater than 50% inhibition at 10 μM)
A9: inhibition of radioligand binding, human neuropeptide Y (NPY-Y1) ([10]; [125I]-PYY): − (“−” indicates less than 50% inhibition at 10 μM)
A6: inhibition of radioligand binding, human melanin-concentrating hormone (MCH1) ([11]; [125I]-S36057): + (“+” indicates greater than 50% inhibition at 10 μM)

COCC1OC(OCc2ccc3ccccc3c2)C(NC(=O)CN)C(OCc2ccc3ccccc3c2)C1O (stereo not shown) [compound 246]
A4: inhibition of radioligand binding ([1]; [125I]-NDP-αMSH, FlashPlate): − (“−” indicates less than 50% inhibition at 10 μM)
A2: inhibition of radioligand binding ([2]; [3H]-Diprenorphine, filtration): − (“−” indicates less than 50% inhibition at 10 μM)
A11: inhibition of radioligand binding ([3]; [125I]-Urotensin II, FlashPlate): − (“−” indicates less than 50% inhibition at 10 μM)
A1: inhibition of radioligand binding ([4]; [3H]-Bremazocine, FlashPlate): − (“−” indicates less than 50% inhibition at 10 μM)
A10: inhibition of radioligand binding ([5]; [125I]-Nociceptin, FlashPlate): − (“−” indicates less than 50% inhibition at 10 μM)
A7: inhibition of radioligand binding ([6]; [3H]-Naloxone, FlashPlate): − (“−” indicates less than 50% inhibition at 10 μM)
A3: inhibition of radioligand binding ([7]; [125I]-NDP-αMSH, FlashPlate): − (“−” indicates less than 50% inhibition at 10 μM)
A8: inhibition of radioligand binding ([8]; [125I]-Substance P, filtration): + (“+” indicates greater than 50% inhibition at 10 μM)
A5: inhibition of radioligand binding ([9]; [125I]-NDP-αMSH, FlashPlate): − (“−” indicates less than 50% inhibition at 10 μM)
A9: inhibition of radioligand binding ([10]; [125I]-PYY, FlashPlate): − (“−” indicates less than 50% inhibition at 10 μM)
A6: inhibition of radioligand binding ([11]; [125I]-S36057, FlashPlate): − (“−” indicates less than 50% inhibition at 10 μM)

CO[C@H]1[C@H](O)[C@@H](COCc2ccccc2)OC(OCCNC(=N)N)[C@@H]1NC(=O)c1c[nH]c2ccccc12 (stereo partly shown) [compound 125]
A4 radioligand binding, percentage inhibition ([1]; [125I]-NDP-αMSH): − (“−” indicates less than 50% inhibition at 10 μM)
A2 radioligand binding, percentage inhibition ([2]; [3H]-Diprenorphine): − (“−” indicates less than 50% inhibition at 10 μM)
A11 radioligand binding, percentage inhibition ([3]; [125I]-Urotensin II): − (“−” indicates less than 50% inhibition at 10 μM)
A1 radioligand binding, percentage inhibition ([4]; [3H]-Bremazocine): − (“−” indicates less than 50% inhibition at 10 μM)
A10 radioligand binding, percentage inhibition ([5]; [125I]-Nociceptin): − (“−” indicates less than 50% inhibition at 10 μM)
A7 radioligand binding, percentage inhibition ([6]; [3H]-Naloxone): − (“−” indicates less than 50% inhibition at 10 μM)
A3 radioligand binding, percentage inhibition ([7]; [125I]-NDP-αMSH): − (“−” indicates less than 50% inhibition at 10 μM)
A8 radioligand binding, percentage inhibition ([8]; [125I]-Substance P): + (“+” indicates greater than 50% inhibition at 10 μM)
A5 radioligand binding, percentage inhibition ([9]; [125I]-NDP-αMSH): − (“−” indicates less than 50% inhibition at 10 μM)
A9 radioligand binding, percentage inhibition ([10]; [125I]-PYY): − (“−” indicates less than 50% inhibition at 10 μM)
A6 radioligand binding, percentage inhibition ([11]; [125I]-S36057): − (“−” indicates less than 50% inhibition at 10 μM)
